Laboratory results published in PMC6201305 (Journal of medicinal chemistry, 2010).
Where “and” joins values, the source holds several entries; their conditions need not be identical. Equal values may be shown once.

Columns and labels:
[1] = molecular target: R255I mutated GPR17 receptor (Homo sapiens, UniProt Q13304, R283I); test: [35S]GTPγS binding functional assay, 1321N1 cells expressing mutated GPR17; format: biochemical; settings: [35S]GTPγS EC50/IC50, P < 0.05 for antagonists
[2] = molecular target: T1, wild type GPR17 (Homo sapiens, UniProt Q13304); test: FAC-MS screening on GPR17-IAM-I column; format: binding; settings: for t/tc × 100, percentage of breakthrough time with respect to cangrelor / t (min), breakthrough time of the ligand with the immobilized GPR17 / binding class from FAC-MS breakthrough: column GPR17-IAM-I; for t (min), breakthrough time of the ligand with the immobilized GPR17: each 1 µM, single ranking experiment; for binding class from FAC-MS breakthrough: relative to cangrelor, MRS 2179 and UDP
T1 sequence (Q13304 29-367): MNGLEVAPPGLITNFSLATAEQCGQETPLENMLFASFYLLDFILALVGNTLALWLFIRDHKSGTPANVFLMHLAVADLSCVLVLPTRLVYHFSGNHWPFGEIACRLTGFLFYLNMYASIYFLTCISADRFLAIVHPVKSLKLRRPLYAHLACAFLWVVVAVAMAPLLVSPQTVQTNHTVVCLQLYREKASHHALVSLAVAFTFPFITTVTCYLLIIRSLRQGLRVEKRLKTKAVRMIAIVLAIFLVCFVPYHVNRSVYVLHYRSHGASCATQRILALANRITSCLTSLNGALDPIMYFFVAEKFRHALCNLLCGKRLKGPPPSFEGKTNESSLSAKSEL

[3] = molecular target: mutated GPR17 receptor (Arg255Ile) (Homo sapiens, UniProt Q13304, R283I); test: FAC-MS screening on mutated GPR17-IAM column; format: binding; settings: Library A, mutated GPR17-IAM column (19.5 million cells); for breakthrough time Mutated GPR17-IAM (Table 5): 1 µM each
Chain of mutated GPR17 receptor (Arg255Ile) (Q13304 29-367 R283I): as the sequence (Q13304 29-367) above, with R255I counted along it

[4] = molecular target: T1, wild type GPR17; settings: cited from earlier work
[5] = molecular target: T1, wild type GPR17; test: FAC-MS screening on GPR17-IAM-II column; format: binding; settings: Library A; for breakthrough time GPR17-IAM-II (Table 5): 1 µM each; for breakthrough time GPR17-IAM-II (Table 5) / t (min), breakthrough time: column GPR17-IAM-II (19.5 million cells); for t/tC × 100: column GPR17-IAM-II; for t (min), breakthrough time: single ranking experiment
[6] = system: P2Y receptors; settings: as listed in Table 1; cited from earlier work
[7] = molecular target: T1, wild type GPR17; test: [35S]GTPγS binding functional assay, 1321N1 cells expressing wild-type GPR17; format: biochemical

Chain of R255I mutated GPR17 receptor (Q13304 29-367 R283I): as the sequence (Q13304 29-367) above, with R255I counted along it

With `CSCCNc1nc(SCCC(F)(F)F)nc2c1ncn2[C@@H]1O[C@H](COP(=O)([O-])OP(=O)([O-])C(Cl)(Cl)P(=O)([O-])[O-])[C@@H](O)[C@H]1O.[Na+].[Na+].[Na+].[Na+]` [Cangrelor, cangrelor, reference compound] the “change in affinity toward mutated vs wild type receptor” value (“change in affinity toward mutated” for short) [1] was “significant increase in affinity”, the “t/tc × 100, percentage of breakthrough time with respect to cangrelor” value (“t/tc × 100, percentage” below) ([2]; Library A mixture) was 100.00% and the “t/tc × 100, percentage” value ([2]; Library B mixture) was 100.00%. For the same compound, the “t (min), breakthrough time of the ligand with the immobilized GPR17” value (“t (min), breakthrough time of the ligand” below) ([2]; Library B mixture) was 12.20 min, the “breakthrough time Mutated GPR17-IAM (Table 5)” value [3] was 13.16 and the “t (min), breakthrough time” value [3] was 13.16 min. For the same compound, the “profile at GPR17” value [4] was “antagonists”, the “breakthrough time GPR17-IAM-II (Table 5)” value [5] was 10.60 and the “t/tC × 100” value [5] was 100.00%. For the same compound, the “t (min), breakthrough time” value [5] was 10.60 min and 10.6 min.
For `N.N.N.N.Nc1nc(C#Cc2ccccc2)nc2c1ncn2[C@@H]1O[C@H](COP(=O)(O)OP(=O)(O)OP(=O)(O)O)[C@@H](O)[C@H]1O` [Compound 4], the “change in affinity toward mutated” value [1] was “a trend toward an increased affinity”, the “t/tc × 100, percentage” value ([2]; Library A mixture) was 120.37% and the “binding class from FAC-MS breakthrough” value [2] was “high binding candidates”. For the same compound, the “Kd value hypothesized from the chromatographic data” value ([2]; elutes after cangrelor) was “subnanomolar”, the “breakthrough time Mutated GPR17-IAM (Table 5)” value [3] was 16.07 and the “t (min), breakthrough time” value [3] was 16.07 min. For the same compound, the “breakthrough time GPR17-IAM-II (Table 5)” value [5] was 13.07, the “t/tC × 100” value [5] was 123.30% and the “t (min), breakthrough time” value [5] was 13.07 min. For the same compound, the pharmacology [6] was “P2Y1,12antogonist” and the “pharmacological profile (agonist/antagonist) in [35S]GTPγS binding” value ([7]; wild-type GPR17) was “agonist profile”.
For `CNc1ncnc2c1ncn2[C@@H]1O[C@H](COP(=O)(O)OP(=O)(O)OP(=O)(O)O)[C@@H](O)[C@H]1O.N.N.N.N` [Compound 5], the “breakthrough time Mutated GPR17-IAM (Table 5)” value [3] was 4.08, the “breakthrough time GPR17-IAM-II (Table 5)” value [5] was 3.69 and the “t/tC × 100” value [5] was 34.81%. For the same compound, the “t (min), breakthrough time” value [5] was 3.69 min.
With `N.N.N.N.O=P(O)(O)OP(=O)(O)OP(=O)(O)OC[C@H]1O[C@@H](n2cnc3c(NC4CCCC4)ncnc32)[C@H](O)[C@@H]1O` [Compound 6] the “t/tc × 100, percentage” value ([2]; Library A mixture) was 49.90%, the “breakthrough time Mutated GPR17-IAM (Table 5)” value [3] was 7.08 and the “breakthrough time GPR17-IAM-II (Table 5)” value [5] was 5.67. For the same compound, the “t/tC × 100” value [5] was 53.49%, the “t (min), breakthrough time” value [5] was 5.67 min and the “pharmacological profile (agonist/antagonist) in [35S]GTPγS binding” value ([7]; wild-type GPR17) was “agonist profile”.
With `CNc1nc(Cl)nc2c1ncn2[C@@H]1O[C@H](COP(=O)(O)OP(=O)(O)OP(=O)(O)O)[C@@H](O)[C@H]1O.N.N.N.N` [Compound 7, 2.-choro-N^6 - methyladenosine Triphospate] the “t/tc × 100, percentage” value ([2]; Library A mixture) was 37.56%, the “breakthrough time Mutated GPR17-IAM (Table 5)” value [3] was 5.27 and the “breakthrough time GPR17-IAM-II (Table 5)” value [5] was 4.50. The “t/tC × 100” value [5] was 42.45%, the “t (min), breakthrough time” value [5] was 4.50 min and 4.5 min and the “pharmacological profile (agonist/antagonist) in [35S]GTPγS binding” value ([7]; wild-type GPR17) was “agonist profile”.
With `CNc1nc(Cl)cc2c1ncn2[C@@H]1O[C@H](COP(=O)(O)OP(=O)(O)OP(=O)(O)O)[C@@H](O)[C@H]1O.N.N.N.N` [Compound 8, 2.-choro-3-deaza-N^6-- methyladenosine Triphospate] the “t/tc × 100, percentage” value ([2]; Library A mixture) was 45.05%, the “breakthrough time Mutated GPR17-IAM (Table 5)” value [3] was 5.79 and the “breakthrough time GPR17-IAM-II (Table 5)” value [5] was 4.77. The “t/tC × 100” value [5] was 45.00%, the “t (min), breakthrough time” value [5] was 4.77 min and the “pharmacological profile (agonist/antagonist) in [35S]GTPγS binding” value ([7]; wild-type GPR17) was “agonist profile”. For the same compound, the “increase of activity on replacement of 3-nitrogen by CH (8 versus 7)” value ([7]; wild-type GPR17, EC50 comparison) was 7 fold.
With `N.N.Nc1nc(Cl)nc2c1ncn2[C@H]1C[C@H](OP(=O)(O)O)[C@@H](COP(=O)(O)O)O1` [Compound 12] the “t/tc × 100, percentage” value ([2]; Library A mixture) was 25.99%, the “breakthrough time Mutated GPR17-IAM (Table 5)” value [3] was 3.54 and the “breakthrough time GPR17-IAM-II (Table 5)” value [5] was 3.55. The “t/tC × 100” value [5] was 33.49%, the “t (min), breakthrough time” value [5] was 3.55 min and the “increase in [35S]GTPγS binding by compound alone” value ([7]; wild-type GPR17) was “did not induce any significant increase”. For the same compound, the “pharmacological profile (agonist/antagonist) in [35S]GTPγS binding” value ([7]; wild-type GPR17) was “antagonist profile”.
For `N.N.N.O=c1[nH]c(=O)n([C@@H]2O[C@H](COP(=O)(O)OP(=O)(O)O)[C@@H](O)[C@H]2O)cc1I` [Compound 13], the “change in affinity toward mutated” value [1] was “a trend toward a reduced affinity”, the “t/tc × 100, percentage” value ([2]; Library A mixture) was 16.54% and the “binding class from FAC-MS breakthrough” value [2] was “weak binders”. For the same compound, the “breakthrough time Mutated GPR17-IAM (Table 5)” value [3] was 2.51, the “t (min), breakthrough time” value [3] was 2.51 min and the “breakthrough time GPR17-IAM-II (Table 5)” value [5] was 2.79. For the same compound, the “t/tC × 100” value [5] was 26.32%, the “t (min), breakthrough time” value [5] was 2.79 min and the “pharmacological profile (agonist/antagonist) in [35S]GTPγS binding” value ([7]; wild-type GPR17) was “agonist profile”.
With `CCCCC#Cc1cn([C@@H]2O[C@H](COP(=O)(O)OP(=O)(O)O)[C@@H](O)[C@H]2O)c(=O)[nH]c1=O` [Compound 14, 5-Hexynyluridine Diphosphate] the “t/tc × 100, percentage” value ([2]; Library A mixture) was 19.67%, the “binding class from FAC-MS breakthrough” value [2] was “weak binders” and the “breakthrough time Mutated GPR17-IAM (Table 5)” value [3] was 2.90. For the same compound, the “breakthrough time GPR17-IAM-II (Table 5)” value [5] was 2.97, the “t/tC × 100” value [5] was 28.02% and the “t (min), breakthrough time” value [5] was 2.97 min.
For `CNc1ncnc2c1ncn2[C@H]1C[C@H](OP(=O)(O)O)[C@@H](COP(=O)(O)O)O1.N.N` [MRS2179, MRS 2179], the “change in affinity toward mutated” value [1] was “significant increase in affinity”, the “t/tc × 100, percentage” value ([2]; Library A mixture) was 28.92% and the “t/tc × 100, percentage” value ([2]; Library A mixture, listed as MRS 2179) was 29%. The “t/tc × 100, percentage” value ([2]; Library B mixture) was 28% and 27.87%, the “t (min), breakthrough time of the ligand” value ([2]; Library B mixture) was 3.40 min and the “breakthrough time Mutated GPR17-IAM (Table 5)” value [3] was 3.47. For the same compound, the “t (min), breakthrough time” value [3] was 3.47 min, the “profile at GPR17” value [4] was “antagonists” and the “breakthrough time GPR17-IAM-II (Table 5)” value [5] was 3.62. For the same compound, the “t/tC × 100” value [5] was 34.15%, the “t (min), breakthrough time” value [5] was 3.62 min and the pharmacology [6] was “P2Y1 competitive Antagonist”.
In the case of `O=c1ccn([C@@H]2O[C@H](COP(=O)([O-])OP(=O)([O-])[O-])[C@@H](O)[C@H]2O)c(=O)[nH]1.[Na+].[Na+].[Na+]` [UDP, uridine diphosphate], the “change in affinity toward mutated” value [1] is reported as “a trend toward a reduced affinity”, the “t/tc × 100, percentage” value ([2]; Library A mixture) is reported as 13% and 13.03% and the “t/tc × 100, percentage” value ([2]; Library B mixture) is reported as 12% and 12.30%. The “t (min), breakthrough time of the ligand” value ([2]; Library B mixture) was 1.50 min, the “breakthrough time Mutated GPR17-IAM (Table 5)” value [3] was 2.15 and the “t (min), breakthrough time” value [3] was 2.15 min. The “profile at GPR17” value [4] was “agonist”, the “breakthrough time GPR17-IAM-II (Table 5)” value [5] was 2.69 and the “t/tC × 100” value [5] was 25.38%. For the same compound, the “t (min), breakthrough time” value [5] was 2.69 min and the pharmacology [6] was “P2Y agonist”.
